Assay results as given in patent US20240327432A1, “THIOPHENE-PHENOTHIAZINE COMPOUNDS AND SYNTHESIS METHOD THEREOF, AS WELL AS APPLICATION THEREOF IN PREPARATION OF PHOTOTHERAPY MEDICINES” (Guangzhou Medical University, priority 2023, published 2024).

Tests used:
[1] = Absorption spectrum by UV-visible spectrophotometer; type: physicochemical; details: measured in ethanol
Description: (§1) Detection of the thiophene-phenothiazine compounds prepared in Examples 1-5: the absorption spectrum of the thiophene-phenothiazine compound in an ethanol solution was measured by using a UV-visible spectrophotometer, and spectral properties of the thiophene-phenothiazine compound were analyzed according to Beer-Lambert law; and a fluorescence emission spectrum of the thiophene-phenothiazine compound in the ethanol solution was measured under excitation of light with a wavelength of 650 nm, and results are shown in Table 1 and FIGS. 2-3.
(§2) • a. Absorbance was measured in ethanol. • b. During fluorescence emission spectrum measurement, an excitation wavelength was 650 nm, and a solvent was methanol. • c. ϕF of MB was used as a reference [ϕF=0.04, methanol].

[2] = Fluorescence emission spectrum; type: physicochemical; details: for λem (maximum fluorescence emission wavelength): excitation 650 nm, solvent methanol; for ϕF (fluorescence quantum yield): ϕF of MB as reference (0.04, methanol)
Description: as §1, with “and a fluorescence emission spectrum of the thiophene-phenothiazine compound in the ethanol solution was measured under excitation of light” left out
as §2

MCF-7 cells [3] = assay: Phototoxicity measurement (CCK-8), MCF-7; type: cell-based, human; details: for IC50: Homo sapiens, MCF7, light or radiation study, 1 h incubation, 630 nm LED, 3.2 J cm^−2, then 24 h, read-out: PDK IC50 (phototoxicity)
Description: (§3) (1) Cell culture: HUVEC cells (human umbilical vein endothelial cells), A549 cells (human lung cancer cells), MCF-7 cells (human breast cancer cells), HeLa cells (human cervical cancer cells) and 4T1 cells (mouse breast cancer cells) were cultured in a DMEM high-glucose medium containing 10% fetal bovine serum and 1% penicillin-streptomycin at 37° C. and under a condition of a 5% carbon dioxide content. The HUVEC cells, the A549 cells, the MCF-7 cells, the HeLa cells and the 4T1 cells, at a logarithmic growth phase, were taken and inoculated into a 96-well plate, respectively, with approximately 1×10^4 cells per well, and incubation was performed overnight at 37° C. and under a condition of 5% CO2.
(§4) (3) Phototoxicity measurement: the cells were incubated in the dark with the compound of the present invention of different concentrations for 1 hour, rinsing was performed with PBS, a fresh culture solution was added, and the cells were irradiated with 630 nm LED light (light dose is 3.2 J cm^−2). Then the cells were incubated in the dark environment for 24 hours, and cell viability was measured by the CCK-8 method.

A549 cells [4] = assay: Phototoxicity measurement (CCK-8), A549; type: cell-based, human; details: for IC50: Homo sapiens, light or radiation study, 1 h incubation, 630 nm LED, 3.2 J cm^−2, then 24 h, read-out: PDK IC50 (phototoxicity)
Description: as §3, §4

4T1 cells [5] = assay: Phototoxicity measurement (CCK-8), 4T1; type: cell-based, mouse; details: for IC50: 1 h incubation, 630 nm LED, 3.2 J cm^−2, then 24 h, read-out: PDK IC50 (phototoxicity)
Description: as §3, §4

HeLa cells [6] = assay: Phototoxicity measurement (CCK-8), HeLa; type: cell-based, human; details: for IC50: Homo sapiens, light or radiation study, 1 h incubation, 630 nm LED, 3.2 J cm^−2, then 24 h, read-out: PDK IC50 (phototoxicity)
Description: as §3, §4

MCF-7 cells [7] = assay: Dark toxicity measurement (CCK-8), MCF-7; type: cell-based; details: Homo sapiens, MCF7, 24 h in dark, read-out: DK IC50 (dark toxicity)
Description: as §3
(§5) (2) Dark toxicity measurement: the cells were incubated in a dark environment with the compound of the present invention of different concentrations for 24 hours, and cell viability was measured by a CCK-8 method.

A549 cells [8] = assay: Dark toxicity measurement (CCK-8), A549; type: cell-based; details: Homo sapiens, 24 h in dark, read-out: DK IC50 (dark toxicity)
Description: as §3, §5

4T1 cells [9] = assay: Dark toxicity measurement (CCK-8), 4T1; type: cell-based, mouse; details: 24 h in dark, read-out: DK IC50 (dark toxicity)
Description: as §3, §5

HeLa cells [10] = assay: Dark toxicity measurement (CCK-8), HeLa; type: cell-based; details: Homo sapiens, 24 h in dark, read-out: DK IC50 (dark toxicity)
Description: as §3, §5

HUVEC cells = assay: Dark toxicity measurement (CCK-8), HUVEC; type: cell-based; details: Homo sapiens, 24 h in dark
Description: as §3, §5

4T1 subcutaneous tumors [11] = details: comparison from prior knowledge; cited from earlier work
[12] = Photostability under continuous LED irradiation; type: physicochemical; details: 630 nm LED, 106 mW cm^−2, FIG. 4
Description: Good photostability is a prerequisite for ensuring continuous generation of ROS by the photosensitizers under light excitation, which can effectively prevent decomposition of the photosensitizers after illumination, avoiding a decrease in a ROS generation rate with increasing illumination time. An LED light source (630 nm, 106 mW cm^−2) was used to continuously irradiate the compound (5 μM), and a UV-visible spectrophotometer was used to measure the absorption spectrum of the compound at 200-800 nm. The photostability of the compound was evaluated by comparing changes in maximum absorption values at 600-800 nm after different irradiation times.
Result diagrams of other compounds are similar to that of the compound I-3.

[13] = Singlet oxygen generation, DPBF steady-state method; type: physicochemical; details: 2 μM in EtOH, 630 nm LED, irradiation for 20 s
Description: The efficiency of producing singlet oxygen through photosensitization is an important index for evaluating the photosensitizers. In the example, a conventional steady-state method was used, 1,3-diphenylisobenzofuran (DPBF) was used as a scavenger, which irreversibly reacted with the singlet oxygen to cause attenuation of the DPBF. An attenuation rate of the DPBF reflects production efficiency of ^1O2. Concentrations of the DPBF in EtOH at multiple irradiation time periods were measured by using a UV/Vis spectrum method.

4T1 subcutaneous tumors [14] = assay: Distribution in 4T1 subcutaneous tumors of mice (imaging); type: in vivo, BALB/c mice; details: 1.6 mg/kg via tail vein
Description: (§6) 7-week-old BALB/c female mice weighing 18 g±1 g (purchased from Zhejiang Vital River Laboratory Animal Technology Co., Ltd) were used to construct a subcutaneous breast cancer (4T1) tumor model. When tumor volumes of the BALB/c mice were approximately 100 mm^3, in vivo anti-tumor experiments began. When the tumor volumes of the BALB/c mice were approximately 200 mm^3, imaging experiments began.
A solution of 10 mg/L was prepared from the compound I-3 of the present invention by using 1×PBS. The BALB/c mice with the tumor volumes of approximately 200 mm^3 were taken, and the solution was injected into tumor bearing mice via tail veins at a dose of 1.6 mg/kg. Imaging photos were taken at different times using Odyssey CLX, with excitation light of 680 nm and detection light of 720 nm. […] Therefore, the thiophene-phenothiazine compound of the present invention can be completely metabolized within 24 hours, effectively solving a metabolic problem in existing PDT treatment mentioned above.

[15] = tested on: subcutaneous breast cancer (4T1) tumor model; assay: In vivo PDT inhibition of breast cancer growth; set-up: species or system BALB/c mice; details: 21 days
Description: as §6
The BALB/c mice with the tumor volumes of approximately 100 mm^3 were taken, and the tumor bearing mice were divided into 4 groups, namely groups A, B, C and D, with 5 mice in each group. The mice in the group A and the group B were injected with 1×PBS 100 μL via tail veins. In addition, the mice in the group C and the group D were injected with compound I-3 via the tail veins at a dose of 1.6 mg/kg; and after 2 hours, the mice in the group B and the group D were irradiated with a light source (655 nm, 300 mW cm^2) for 10 minutes. Body weights and tumor volumes of the mice were measured on the 2nd day, 4th day, 8th day, 12th day, 16th day, and 21st day, respectively. On the 21st day, approximately 0.8 mL of mouse blood was collected using an eyeball blood sampling method, of which 0.4 mL of the mouse blood was placed in an EDTA-2K anticoagulant tube, and the remaining 0.4 mL of the mouse blood was centrifuged for serum collection.

[16] = Mus musculus, light or radiation study

Row | Compound | λmax (maximum absorption wavelength) [1] [nm] | λem (maximum fluorescence emission wavelength) [2] [nm] | ϕF (fluorescence quantum yield) [2] | PI (phototherapeutic index) (MCF-7 cells [3]) | IC50 (MCF-7 cells [3]) [nM] | PI (phototherapeutic index) (A549 cells [4]) | IC50 (A549 cells [4]) [nM] | PI (phototherapeutic index) (4T1 cells [5]) | IC50 (4T1 cells [5]; [16]) [nM] | PI (phototherapeutic index) (HeLa cells [6]) | IC50 (HeLa cells [6]) [nM] | IC50 (MCF-7 cells [7]) [nM] | IC50 (A549 cells [8]) [nM] | IC50 (4T1 cells [9]; Mus musculus) [nM] | IC50 (HeLa cells [10]) [nM] | IC50 (HUVEC cells) [nM] | other results
1 | CCCCCCCNc1cc2c(c3sccc13)=Nc1ccc(N(CC)CC)cc1S=2Cl (stereo not shown) [Compound I-5] | 674 | 700 | 0.6 | 7.11 | 470 | 8.57 | 420 | 2.22 | 1920 | 3.32 | 430 | 3340 | 3570 | 4270 | 1440 | 7630 | –
2 | CCN(CC)c1ccc2c(c1)S(Cl)=c1cc(NC)c3ccsc3c1=N2 (stereo not shown) [Compound I-2] | 671 | 698 | 0.5 | 14.2 | 140 | 21.66 | 320 | 24.41 | 400 | 23.49 | 130 | 2030 | 6930 | 9790 | 3140 | 17600 | –
3 | CCN(CC)c1ccc2c(c1)S(Cl)=c1cc(N)c3ccsc3c1=N2 (stereo not shown) [Compound I-1] | 663 | 692 | 0.4 | 9.03 | 390 | 16.47 | 460 | 17.69 | 870 | 10.26 | 360 | 3560 | 7540 | 15400 | 3740 | 25200 | –
4 | CN(C)c1ccc2nc3ccc(=[N+](C)C)cc-3sc2c1 [MB, Methylene blue, reference compound] | – | – | – | – | – | – | – | – | – | – | – | – | – | – | – | – | IC50 (4T1 cells [5]): 14100 nM; IC50 (4T1 cells [9]): 25700 nM
5 | CCCCCNc1cc2c(c3sccc13)=Nc1ccc(N(CC)CC)cc1S=2Cl (stereo not shown) [Compound I-4] | 673 | 701 | 0.5 | 9.05 | 390 | 11.09 | 310 | 4.16 | 1320 | 4.32 | 440 | 3490 | 3490 | 5480 | 1890 | 10400 | –
6 | porfimer sodium | – | – | – | – | – | – | – | – | – | – | – | – | – | – | – | – | metabolic time in the bodies (4T1 subcutaneous tumors [11]): about ten weeks
7 | CCCNc1cc2c(c3sccc13)=Nc1ccc(N(CC)CC)cc1S=2Cl (stereo not shown) [Compound I-3] | 673 | 700 | 0.6 | 24.00 | 120 | 31.35 | 210 | 44.51 | 190 | 32.72 | 70 | 2860 | 6590 | 8670 | 2400 | 13600 | change of maximum absorption value as irradiation time increases (photostability) [12]: does not show a significant change; photosensitive efficiency (1O2, DPBF attenuation) [13]: 80%; time within which metabolized in mice (4T1 subcutaneous tumors [14]): ≤ 24 h; time after which compound gradually accumulates in tumors (4T1 subcutaneous tumors [14]; 4T1 tumor bearing mice): 1 h; time of maximum accumulation in the tumors (4T1 subcutaneous tumors [14]; 4T1 tumor bearing mice): 2 h; imaging signal after 24 hours (4T1 subcutaneous tumors [14]; 24 hours): basically not detected; growth of tumor volumes ([15]; group C: 1.6 mg/kg i.v. alone, no irradiation): did not show tumor growth inhibition; growth of tumor volumes ([15]; group D: 1.6 mg/kg i.v. + light 655 nm, 10 minutes, after 2 hours): significantly inhibited
